Reference: ChEMBL document CHEMBL1148194, “Dysinosins B-D, inhibitors of factor VIIa and thrombin from the Australian sponge Lamellodysidea chlorea” (J Nat Prod, 2004)

Assays:
Coagulation factor VII = molecular target: T1, Coagulation factor VII (Homo sapiens, UniProt P08709); experiment: Inhibition of factor 7a by spectrophotometric assay
T1 sequence (P08709 whole entry): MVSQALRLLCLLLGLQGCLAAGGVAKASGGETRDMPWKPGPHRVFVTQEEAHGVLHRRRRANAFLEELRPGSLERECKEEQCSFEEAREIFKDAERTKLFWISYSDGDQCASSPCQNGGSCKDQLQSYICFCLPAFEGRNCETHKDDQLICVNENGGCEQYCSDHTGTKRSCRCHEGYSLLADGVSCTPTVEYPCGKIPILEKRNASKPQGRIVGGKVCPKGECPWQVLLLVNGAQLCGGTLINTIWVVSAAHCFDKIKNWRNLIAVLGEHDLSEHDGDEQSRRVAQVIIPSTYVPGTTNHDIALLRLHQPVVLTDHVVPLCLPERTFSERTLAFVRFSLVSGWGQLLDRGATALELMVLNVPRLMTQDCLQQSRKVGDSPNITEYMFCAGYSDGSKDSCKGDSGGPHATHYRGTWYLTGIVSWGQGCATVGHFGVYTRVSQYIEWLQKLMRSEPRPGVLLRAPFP

Prothrombin = Prothrombin (Homo sapiens, UniProt P00734); experiment: Inhibition of thrombin by spectrophotometric assay

Structure (SMILES) | Ki (Coagulation factor VII) [µM] | Ki (Prothrombin) [µM]
CO[C@H](COS(=O)(=O)[O-])C(=O)N[C@H](CC(C)C)C(=O)N1[C@H](C(=O)NCCC2=CC[N+](=C(N)N)C2)C[C@@H]2C[C@H](O)[C@@H](O)C[C@@H]21 [DYSINOSIN A] | 0.108 | 0.452
CO[C@H](COS(=O)(=O)[O-])C(=O)N[C@H](C(=O)N1[C@H](C(=O)NCCC2=CC[N+](=C(N)N)C2)C[C@@H]2C[C@H](O)[C@@H](O[C@H]3O[C@H](CO)[C@@H](O)[C@H](O)[C@H]3O)C[C@@H]21)C(C)C [DYSINOSIN B] | 0.09 | 0.17
CO[C@H](COS(=O)(=O)[O-])C(=O)N[C@H](C(=O)N1[C@H](C(=O)NCCC2=CC[N+](=C(N)N)C2)C[C@@H]2C[C@H](O)[C@@H](O)C[C@@H]21)C(C)C [DYSINOSIN C] | 0.124 | 0.55
CO[C@H](CO)C(=O)N[C@H](C(=O)N1[C@H](C(=O)NCCC2=CC[N+](=C(N)N)C2)C[C@@H]2C[C@H](O)[C@@H](O)C[C@@H]21)C(C)C [DYSINOSIN D] | 1.32 | > 5.1
